Experimental data taken from US7951549B2, “Methods for the identification of agents that inhibit mesenchymal-like tumor cells or their formation” (OSI Pharmaceuticals, Inc., priority 2008, dated 2011).
Entries after “also recorded” stand apart in the source; their conditions may differ.

Columns and labels:
Format in all cases: cell-based, human
[1] = system: H358 cells; test: Induction of EMT in H358 cells by growth factors and cytokines (immunoblot of EMT biomarkers); settings: for induction of EMT in H358 cells: single ligand, 7 days
Description: The human line H358 was cultured in the appropriate ATCC recommended supplemented media. Growth factor and cytokine induced EMT was monitored over a 7-14 day period. Growth factors and cytokines were obtained from commercial sources and included TGFβ 10 ng/ml, Endothelin 100 nM, IL-4 5 ng/ml, IL-6 5 ng/ml, IL-8 5 ng/ml, VEGF 10 ng/ml, Stromal derived factor, 100 ng/ml, Epidermal derived factor 10 ng/ml, MMP2, 100 ng/ml, MMP7, 100 ng/ml, MMP9, 100 ng/ml, Collagen-I, 5 μg/cm2, Collagen-IV, 5 μg/cm2, Fibronectin, 1 μg/cm2, Laminin-I, 1 μg/cm2, Vitronectin, 0.1 μg/cm2, Polylysine, 100 mg/mL, HGF, 100 ng/mL, MSP, 100 ng/ml, IGF-1, 50 ng/mL, CSF-1, 100 ng/mL, ET1, 100 nM, SDF-1alpha, 100 ng/ml PGE2, 500 nM, LPA, 10 μM, S1P, 1 μM, TGFbeta1, 2.5 ng/mL, TNFalpha, 25 ng/mL, IL1beta, 2.5 ng/mL, IL6, 2 ng/mL, IL8, 0.5 ng/mL, WNT-1, 5 ng/mL, CTGF, 20 ng/ml, Trance, 50 ng/ml, FGF1, 10 ng/ml, FGF2, 10 ng/ml, BMP4, 100 ng/ml, BMP7, 100 ng/ml, IGF2, 100 ng/ml, Oncostatin M, 100 ng/ml, NRG1, 50 ng/ml, PDGF-AA, 50 ng/ml, PDGF-BB, 30 ng/ml, WISP1, 20 ng/ml, Fulvestrant, 1 μM, LIF, 20 ng/ml, IFN g, 50 ng/ml, HMG-B1, 50 ng/ml, M-CSF, 50 ng/ml, PTHrP, 50 ng/ml, MCP1, 50 ng/ml, IL-1a, 10 ng/ml, IL-33, 50 ng/ml, IL-31, 50 ng/ml, GM-CSF, 25 ng/ml, Angiopoeitin 2, 400 ng/ml, PAR1, 100 μM, PAR2, 100 μM, PAR4, 100 μM, Wnt5a, 200 ng/ml, G-CSF, 50 ng/ml, Amphiregulin, 100 ng/ml, CNTF, 25 ng/mL, Pleiotrophin, 25 ng/ml, Prolactin, 100 ng/ml, TRAIL, 100 ng/ml.
Cell lines were treated as indicated in the text and figure legends. Cell lysates were prepared in RIPA buffer (Sigma, #R0278) containing protease (Sigma #P8340) and phosphatase (Sigma, #P5726) inhibitors. Protein concentration was determined by micro-BCA assay (Pierce, #23227). Protein immunodetection was performed by electrophoretic transfer of SDS-PAGE separated proteins to nitrocellulose, incubation with antibody and chemiluminescent second step detection (PicoWest; Pierce, #34078). The antibodies used were: E-cadherin (sc21791), N-cadherin (#7939), ErbB3 (sc285), GAPDH (#25778) and Zeb1 (#25388), all from Santa Cruz Biotechnology; vimentin (BD550513) and fibronectin (BD610077; both from BD Biosciences); β-actin (Sigma, #A5441).

[2] = system: H358 cells; test: Immunofluorescence and confocal imaging of E-cadherin and vimentin in ligand-treated H358 cells; settings: cells treated for 7 days
Description: (§1) Cells were plated on coverslips on experimental day 0, stimulated with ligand on day 1 and refreshed with medium and ligand on day 3-4. On day 7, cells were fixed at room temperature for 10 minutes in 4% paraformaldehyde (EMS #15701)/PBS (Gibco #14190). Cells were blocked in 3% BSA/PBS and incubated with primary antibody (E-cadherin, Santa Cruz #sc21791 and Vimentin, Chemicon #AB5733) diluted in blocking buffer for two hours at room temperature. Cells were washed and incubated in secondary antibody (Invitrogen #A11029 and Chemicon #AP194R) followed by nuclear counterstain TO-PRO3 (Invitrogen #T3605). Coverslips were mounted on slides with Pro-Long Gold anti-fade reagent (Invitrogen P36934). Images were captured on a Leica DMRXE microcope with SP2 scanner using Leica Confocal Software.

[3] = system: H358 cells; test: TGFβ-induced EMT of H358 cells in 3D matrigel culture, with and without inhibitor; settings: 10 μM SB431542, ligand TGFβ
Description: 3-Dimensional matrigel culture: Tissue culture wells were coated with a layer of matrigel of 1 mm depth or greater. H358 cells were plated on top of this in 2% matrigel with seeding density of 2,500-5000 cells/cm^2. Once the cell/matrigel layer had solidified, media was added and cultures were allowed to incubate overnight at 37° C. in a CO2 incubator before treatment of cells with ligand with and without addition of 10 μM SB431542 (Sigma-Aldrich, St. Louis, Mo.; product #S4317). Culture media, ligand with and without addition of 10 μM SB431542 was replenished every 3-4 days during the duration of the experiment.
as §1, with “Images were captured on a Leica DMRXE microcope with SP2 scanner using Leica Confocal Software.” left out

[4] = system: H358 cells; test: Ligand-induced EMT in H358 cells with pharmacological inhibitors (Western blot markers, morphology); settings: inhibitor and ligand for 7 days; for EMT in OSM-induced models (markers and morphology): OSM alone or in combination
Description: EMD Biosciences #444937), JAK inhibitor 1 (“JAKi”; EMD Biosciences #420099), and LY294002 (PI3K inhibitor (PI3Ki); EMD Biosciences #440202) were used in the concentrations indicated. Cells were treated with inhibitor 30 minutes prior to ligand stimulation. Medium, inhibitor and ligand were refreshed on experimental day 3 to 4. Cell lines were treated as indicated in the text and figure legends. Cell lysates were prepared in RIPA buffer (Sigma, #R0278) containing protease (Sigma #P8340) and phosphatase (Sigma, #P5726) inhibitors. Protein concentration was determined by micro-BCA assay (Pierce, #23227). Protein immunodetection was performed by electrophoretic transfer of SDS-PAGE separated proteins to nitrocellulose, incubation with antibody and chemiluminescent second step detection (PicoWest; Pierce, #34078). The antibodies used were: E-cadherin (sc21791), N-cadherin (#7939), ErbB3 (sc285), GAPDH (#25778) and Zeb1 (#25388), all from Santa Cruz Biotechnology; vimentin (BD550513) and fibronectin (BD610077; both from BD Biosciences); β-actin (Sigma, #A5441).

HGF: hepatocyte growth factor (Peprotech #100-39)
E-cadherin repression or vimentin induction as single agents ([1]; seven day treatment of H358): neither HGF or OSM as single agents produced significant
extent of EMT at the single cell level (E-cadherin and vimentin expression and localization) [2]: partial EMT

EGF: epidermal growth factor, protein ligand
induction of EMT in H358 cells [1]: to a lesser extent

TNFα
induction of EMT in H358 cells [1]: able to induce EMT

TGFβ
E-cadherin expression ([1]; seven day treatment of H358): marked decrease
vimentin expression ([1]; seven day treatment of H358): robust increase
E-cadherin expression ([1]; seven day treatment of H358, listed as TGF-beta): very substantial
induction of EMT in H358 cells [1]: most complete EMT
extent of EMT at the single cell level (E-cadherin and vimentin expression and localization) [2]: more complete EMT

NC(=O)c1ccc(-c2nc(-c3ccc4c(c3)OCO4)c(-c3ccccn3)[nH]2)cc1 [SB431542]
epithelial to mesenchymal transition induced by TGFβ (vimentin, E-cadherin) [3]: abrogated; also recorded: inhibited

CC(C)(C)c1nc2c3cc[nH]c(=O)c3c3cc(F)ccc3c2[nH]1 [JAK inhibitor]
EMT in OSM-induced models (markers and morphology) [4]: blocked
EMT in OSM-induced models (markers and morphology) ([4]; listed as JAKi): blocks
downregulation of E-cadherin induced by OSM, TGFβ, HGF+OSM and TGFβ+OSM ([4]; Western blot): blocked
upregulation of vimentin by OSM, HGF+OSM and TGFβ+OSM ([4]; Western blot): attenuated
